In US20230128194A1, “METHODS AND COMPOSITIONS TO ALTER HEPATIC GABA RELEASE TO TREAT OBESITY-RELATED CONDITIONS” (ARIZONA BOARD OF REGENTS ON BEHALF OF THE UNIVERSITY OF …, priority 2017, published 2023):

What was measured:
Type in all cases: in vivo, mouse
[1] = system: high fat diet-induced obese mice; assay: GABA-T inhibitors (8 mg/day IP) in HFD-induced obese mice: body weight, serum insulin/glucose/glucagon, OGTT, ITT
Experimental: (§1) All animal studies were conducted using male wildtype C57BL/6J mice purchased from Jackson Laboratories or bred in-house (Bar Harbor, Me.). Mice were kept on a 14-hour light/10-hour dark schedule and housed 3-5 mice per cage until 1 week prior to study initiation, at which point animals were individually housed. Studies were conducted in lean chow fed mice (7013 NIH-31, Teklad WI, 3.1 kcal/g, 18% kcal from fat, 59% kcal from carbohydrate, 23% kcal from protein) at 12-16 weeks of age. Studies in diet-induced obese mice dosed intraperitoneally with GABA transaminase inhibitors, mice treated with ethanolamine-O-sulfate in their drinking water, and mice treated with GABA-T targeted or scramble control antisense oligonucleotides (ASO) were performed after 8-10 weeks on a high fat diet (TD 06414, Teklad WI, 5.1 kcal/g, 60.3% kcal from fat, 21.3% kcal from carbohydrate, 18.4% kcal from protein; 20-26 weeks of age). For ASO studies, mice were stratified by body weight and assigned to an injection treatment (control or GABA-T). Studies in obese vagotomy and sham mice were performed after 9 weeks of high fat diet feeding. Unless fasted, mice had ad libitum access to food and water. All studies were approved by The University of Arizona Institutional Animal Care and Use Committee.
(§2) Wildtype lean and obese mice were randomly divided into treatment groups and dosed daily with 8 mg of ethanolamine-O-sulfate (EOS; Sigma-Aldrich, St. Louis, Mo.), vigabatrin (United States Pharmacopeia, Rockville, Md.) or PBS. Obese sham and vagotomy mice were dosed daily with 8 mg of EOS. In all cases, basal bleeds were taken prior to initiation of an ITT. Lean mice received treatment by oral gavage (0.3 mL/mouse) while obese mice were treated by intraperitoneal injection (0.3 mL/mouse). Pre-treatment studies were conducted in the week immediately prior to beginning drug administration. Daily doses took place at 9 am each day and oral glucose tolerance tests (OGTT) and insulin tolerance tests (ITT) were performed on the third and fourth days of treatment in lean mice, respectively. In wildtype obese mice, OGTT and ITT were performed on the fourth day of treatment in separate cohorts. On the fifth day of treatment, 2DG clearance studies were performed. In sham/vagotomy mice, OGTT and ITT were performed on the fourth and fifth day of treatment, respectively. After a 2-week washout period without treatment injection, a basal bleed and bleed 15 minutes after an oral glucose gavage ([…]) to determine oral glucose stimulated insulin secretion were performed.
(§3) Oral glucose (2.5 g/kg; 0.1 mL/10 g body weight; Chem-Impex Int'l Inc., Wood Dale, Ill.) was given to 4 hour fasted individually housed mice. All glucose tolerance tests began at […] and glucose was measured in whole blood, collected from the tail vein, by glucometer (Manufacture #D2ASCCONKIT, Bayer, Leverkusen, Germany) at 0, 15, 30, 60, 90, and 120 minutes after glucose gavage. Blood for serum insulin (oral glucose stimulated insulin secretion; OGSIS) and glucose determination was collected from the tail vein 15 minutes following glucose administration.
(§4) Intraperitoneal insulin (0.5 U/kg; 0.1 mL/10 g body weight; Sigma Aldrich, St. Louis, Mo.) was given to 4 hour fasted individually housed mice. All insulin tolerance tests began at […] and glucose was measured in whole blood, collected from the tail vein, by glucometer (Manufacture #D2ASCCONKIT, Bayer, Leverkusen, Germany) at 0, 30, 60, 90, and 120 minutes after insulin injection.
(§5) Within 2 hours of collection, blood was left to clot at room temperature for 20 minutes. Thereafter, the blood was centrifuged at 3,000×g for 30 minutes at 4° C. and serum was collected. Serum was stored at −80° C. until metabolite and hormone analyses. A colorimetric assay was used to analyze serum glucose (Cat. #G7519, Pointe Scientific Inc., Canton Mich.). Serum insulin was analyzed by enzyme-linked immunosorbent assay (ELISA; Cat. #80-INSMSU-E01,E10, Alpco, Salem, N.H.). […]

[2] = system: diet-induced obese mice; assay: body composition by EchoMRI in EOS treated mice; conditions: 3 g/L in drinking water, day 7 vs day 0
Experimental: Body composition was assessed in diet-induced obese mice on day 0 and 7 days after continuous provision of EOS in the drinking water (3 g/L) using an EchoMRI 900 with A10 insert for mice. Calibration was performed daily and had the water stage set to on.

[3] = system: high fat diet-induced obese mice; assay: tissue specific 3H-2-deoxy-D-glucose uptake after oral glucose gavage; conditions: day 5, vs saline
Experimental: On the fifth day of EOS or PBS treatment 3H-2-deoxy-D-glucose (2DG; 10 uCi/mouse; PerkinElmer, Waltham, Mass.) was given to 4-hour fasted individually housed mice. Studies were performed in 2 cohorts on 2 different days. 2DG was given by oral gavage in a solution of glucose (2.5 g/kg) and each mouse received the same dose based off the average body weight for their cohort (0.1 mL/10 g body weight). Mice were anesthetized by isoflurane and sacrificed by cervical dislocation 45 minutes following oral gavage. Liver, soleus, quadriceps femoris, and gonadal white adipose tissue were collected, weighed, and dissolved overnight in 1N NaOH (0.5 mL/50 mg tissue) at 55° C. on a shaker plate. 0.5 mL of dissolved tissue was added to 5 mL of scintillation cocktail (Ultima Gold, PerkinElmer, Waltham, Mass.) and disintegrations per minute (DPM) were measured using a LS 6500 Multipurpose Scintillation Counter (Beckman Coulter, Brea, Calif.). DPM/g tissue weight was determined for each tissue and normalized based on a correction factor calculated by the average total DPM/g for all tissues divided by the total DPM/g for all tissues of the individual mouse.

[4] = system: obese hepatic vagotomized and sham operated mice; assay: EOS (8 mg/day) in HFD-induced obese sham operated and hepatic vagotomized mice
Experimental: Surgeries were performed in 12-week old male C57BL/6J mice under isoflurane anesthesia. Mice were randomly assigned to a surgical group (sham or vagotomy). A ventral midline incision through the skin and peritoneum allowed us to isolate the hepatic vagus nerve as it branched from the esophagus. In vagotomized mice, the hepatic vagal nerve was severed, while it remained intact in sham operated mice. The peritoneum was sutured with absorbable polyglactin 910 suture and the skin with nylon suture. Mice were given a single post-operative dose of slow release formulated buprenorphine analgesic (1.2 mg/kg slow release, sub-cutaneous). Food intake and body weight were monitored daily and sutures were removed 7 days post-operation.
as §2, §3, §4

[5] = system: lean mice; assay: GABA-T inhibitors (8 mg/day oral gavage) in lean mice: glucose homeostasis
Experimental: as §1, §2, §3, §4, §5

[6] = 8 mg/day IP, four days, relative to pre-treatment

Q: With `NCCOS(=O)(=O)O` [EOS, ethanolamine-O-sulfate] as the compound, how does the “glucose:insulin ratio” value [1, 6] read?
A: The value was “increased”.

Q: What about the serum glucose [1, 6] of the same compound?
A: Its serum glucose is “decreased”.

Q: What about the serum insulin [1, 6] of the same compound?
A: The serum insulin was “decreased”.

Q: What about the body weight ([1]; 8 mg/day IP, through 5 days, vs saline injected mice) of the same compound?
A: The body weight was “remained similar”.

Q: And the serum glucagon ([1]; 5 days, relative to control mice)?
A: Its serum glucagon is “decreased”.

Q: And the “glucose stimulated serum insulin” value ([1]; treatment day 4, relative to pre-treatment)?
A: Its value is “tended to be decreased”.

Q: And the “glucose stimulated serum insulin after washout” value ([1]; two-weeks washout)?
A: Its value is “markedly increased”.

Q: And the “serum insulin and glucose:insulin ratio after washout” value ([1]; two-weeks washout)?
A: Its value is “return of serum insulin and the glucose:insulin ratio to pre-treatment levels”.

Q: What about the “insulin sensitivity assessed by insulin tolerance test (ITT)” value ([1]; within 4 days of initiating treatment) of the same compound?
A: The value was “improved”.

Q: What about the “decrease of fat mass” value [2] of the same compound?
A: Its value is 16.27%.

Q: What about the “decrease of lean mass” value [2] of the same compound?
A: The value was 6.15%.

Q: What about the “decrease of total body mass” value [2] of the same compound?
A: Its value is 10%.

Q: What about the “2DG clearance by gonadal white adipose tissue” value [3] of the same compound?
A: Its value is “did not affect”.

Q: And the “2DG clearance by the quadriceps femoris” value [3]?
A: Its value is “did not affect”.

Q: What about the “increase of 2DG uptake by the soleus” value [3] of the same compound?
A: Its value is 22%.

Q: What about the “responses to EOS in vagotomized mice” value ([4]; hepatic vagotomized obese mice) of the same compound?
A: Its value is “eliminated most of the responses”.

Q: And the serum glucose ([4]; hepatic vagotomized obese mice)?
A: The serum glucose was “decrease”.

Q: What about the “glucose stimulated serum insulin” value ([4]; sham operated obese mice) of the same compound?
A: Its value is “diminished”.

Q: And the “glucose:insulin ratio” value ([4]; sham operated obese mice)?
A: Its value is “elevated”.

Q: What about the “insulin sensitivity by insulin tolerance test” value ([4]; sham operated obese mice) of the same compound?
A: The value was “tended to improve”.

Q: And the oral glucose tolerance ([4]; sham operated obese mice)?
A: Its oral glucose tolerance is “improved”.

Q: What about the serum glucose ([4]; sham operated obese mice) of the same compound?
A: Its serum glucose is “decreased”.

Q: And the serum insulin ([4]; sham operated obese mice)?
A: Its serum insulin is “decreased”.

Q: What about the “all parameters after washout” value ([4]; sham operated obese mice, 2-week washout) of the same compound?
A: Its value is “restored all parameters to pre-treatment measures”.

Q: What about the “body weight between surgical groups” value ([4]; sham vs vagotomized, during EOS treatment) of the same compound?
A: The value was “did not differ”.

Q: What about the serum glucose [5] of the same compound?
A: Its serum glucose is “decreased”.

Q: What about the glucose tolerance ([5]; 8 mg/day) of the same compound?
A: Its glucose tolerance is “no effect”.

Q: And the insulin sensitivity ([5]; 8 mg/day)?
A: The insulin sensitivity was “no effect”.

Q: What about the serum insulin concentrations ([5]; 8 mg/day) of the same compound?
A: The serum insulin concentrations was “no effect”.

Q: And the glucose homeostasis ([5]; acute)?
A: Its glucose homeostasis is “does not alter”.
